In patent US20220389377A1, “TREATMENT OF MEDICAL CONDITIONS BY STEM CELL TRANSPLANTS AND STEM CELL ACTIVATION” (Vitro Biopharma, Inc., priority 2021, published 2022):
Read-outs that look alike come from different tables or passages of the source. Values belong to the molecule of their own block, whether it stands above or below them.

Assays:
[1] = test system: human MSCs; assay: cells; conditions: for effect on MSC migration induced by curcumin and quercetin / effect on MSC migration induced by curcumin and resveratrol: 20 μM AMD3100 or 15 μM GM6001; for effect on MSC migration induced by Li-VPA: both AMD 3100 and GM6001 present; for EC50: Homo sapiens
Procedure: (§1) FIG. 1 is a microphotograph depicting cell migration using fluorescent readout and cell tracker green as a fluorescent marker of human UC-MSCs. […] The EC50 was determined as a measure of effectiveness of activating agents. […] An initial analysis of the cell free zone using Image J software was used to screen concentrations of activating agents for dose-response determination in further experiments.
(§2) The cell migration assays described above were set up as follows: One million cells/cell line were resuspended in 10 mL MSC-Gro™ serum free, quiescent medium (Vitro Biopharma Cat. No. SCO0B17) containing 5 μg/mL mitomycin C (Sigma, Cat. No. M4287) to inhibit proliferation and incubated for 2 hours at room temperature with end-to-end agitation at 7 RPM.
In some experiments, curcumin was used at 1 μM to block proliferation. Cells were centrifuged (450×g) for 7 minutes, washed with PBS and then resuspended in 1 mL MSC-Gro™ low serum, complete medium (Vitro Biopharma Cat. No. SCO0B1) and plated at 25,000 cells/well in black 96 well, TC-coated cell culture plates (ThermoScientific, Cat. No. 165305) containing cell seed-stoppers (Platypus, Cat. No. CMAUFL4) to form a cell free zone at the center of the well and incubated in 5% CO2, 1% O2, 94% N2 at 37° C. in a humidified chamber for 24 hrs. Plates used for culture of NSCs were first treated with 10 μg/mL fibronectin (Sigma, Cat. No. F0556) for 2 hours at 37° C. Following washout with PBS (3×), cell seed stoppers were inserted, NSCs were plated at 25,000/well and incubated in 5% CO2, 1% O2, 94% N2 at 37° C. in a humidified chamber for 48 hrs.
For studies of the effects of CXCR4 and MMP-9 inhibition following 24 hours of cell culture, appropriate wells were dosed with 15 μM GM6001 and 20 μM AMD3100 for 6 hours. Cells were washed once with PBS then incubated in serum free, MSC-Gro™ (Vitro Biopharma Cat. No. SCO0B17) containing 5 μM Cell Tracker Green CIVIFDA (Molecular Probes, Cat. No. C7025) at 37° C. for 30 minutes. The wells were then washed with serum free, MSC-Gro™ (Vitro Biopharma Cat. No. SCO0B17) and incubated for 30 minutes at 37° C. Cells were washed once with PBS and this was replaced with MSC-Gro™ serum free, quiescent medium (Vitro Biopharma Cat. No. SCO0B17) containing different concentrations of activating agents. […] A TopSeal (PerkinElmer, Cat. No. 6050195) covered the plate for live-cell imaging in a BioTek Cytation3 imaging reader. Kinetic data was acquired every 2 hrs for 24 hrs using a GFP filter and bright field data acquisition. The gas phase throughout the acquisition of kinetic data was 5% O2, 5% CO2 with the balance nitrogen maintained by a BioTek CO2/O2 gas controller. Images were saved as TIFF files to calculate percent closure using imaging data.

[2] = test system: human MSCs; assay: Gene expression analysis by qPCR in human MSCs; type: cell-based; conditions: for expression levels of FGF-21, CXCR4 and Hsp70 / expression of Oct 3/4 / expression of SIRT-1: 250 μM VPA, 500 nM curcumin, FIG. 13
Procedure: Beta actin was measured as a house-keeping gene. […] Gene expression was quantified by determining the amount of gene-specific DNA/total cDNA. Data is mean+/−SD of 4 replicates.
Native human umbilical cord-derived MSCs (Vitro Biopharma Cat. No. SC00A1) were expanded from cryopreservation in T-25 TC-coated flasks (BD Falcon, Cat. No. 353108) in MSC-Gro™ low serum, complete medium (Vitro Biopharma Cat. No. SCO0B1). Cells were sub-cultured and counted on a Beckerman-Coulter Z2 particle counter (range 10 μm-30 μm). Cells were plated at 10,000/cm^2 a TC-coated Greiner Bio-One T75 flask and maintained in MSC-Gro™ serum free, complete medium (Vitro Biopharma Cat. No. SCO0B3) in a reduced O2 environment (1% O2, 5% CO2, 94% N2) at 37° C. in a humidified chamber. The MSCs were treated continuously for up to 2 weeks. Cultures were fed every 3 days. Cells were harvested using Accutase (Innovative Cell Technologies Inc., Cat No AT-104) and centrifuged (450×g) for 7 minutes. Cell supernatant was aspirated off and cells were resuspended in 1 mL PBS and counted on a Beckerman-Coulter Z2 particle counter (range 10 μm-30 μm). Total RNA was extracted using RNeasy mini kit (Qiagen Cat. No. 74104). RNA was quantified using an absorbance measurement at 260 nm. RNA was converted to cDNA using Quantitect reverse transcription kit (Qiagen Cat. No. 205310) in a thermocycler. RNA was incubated in the gDNA elimination reaction for 2 minutes at 42° C. then incubated in the reverse-transcription master mix for 15 minutes at 42° C. Immediately after, it was incubated at 95° C. for 3 minutes for inactivation. cDNA was sent to an outside lab (CU-Anschutz Metabolic Laboratory) for q-PCR to detect relative or absolute gene expression levels. cDNA was diluted 1:5 and an iTaq Universal Supermix fluorescent probe (BioRad Cat. No. 172-5120) used to detect the threshold cycle (Ct) during PCR Dilution factors and cDNA concentrations were calculated into recorded values then normalized to untreated hMSCs (Vitro Biopharma Cat. No. SC00A1).
Gene expression was quantified by determining the amount of gene-specific DNA/total cDNA. Data is mean+/−SD of 4 replicates.
Native human umbilical cord-derived MSCs (Vitro Biopharma Cat. No. SC00A1) were expanded from cryopreservation in T-25 TC-coated flasks (BD Falcon, Cat. No. 353108) in MSC-Gro™ low serum, complete medium (Vitro Biopharma Cat. No. SCO0B1). Cells were sub-cultured and counted on a Beckerman-Coulter Z2 particle counter (range 10 μm-30 μm). Cells were plated at 10,000/cm2 a TC-coated Greiner Bio-One T75 flask and maintained in MSC-Gro™ serum free, complete medium (Vitro Biopharma Cat. No. SCO0B3) in a reduced O2 environment (1% O2, 5% CO2, 94% N2) at 37° C. in a humidified chamber. The MSCs were treated continuously for up to 2 weeks. Cultures were fed every 3 days. Cells were harvested using Accutase (Innovative Cell Technologies Inc., Cat No AT-104) and centrifuged (450×g) for 7 minutes. Cell supernatant was aspirated off and cells were resuspended in 1 mL PBS and counted on a Beckerman-Coulter Z2 particle counter (range 10 μm-30 μm).
Total RNA was extracted using RNeasy Mini Kit (Qiagen Cat. No. 74104). RNA was quantified using an absorbance measurement at 260 nm. RNA was converted to cDNA using Quantitect reverse transcription Kit (Qiagen Cat. No. 205310) in a thermocycler. RNA was incubated in the DNA elimination reaction for 2 minutes at 42° C. then incubated in the reverse-transcription master mix for 15 minutes at 42° C. Immediately after, it was incubated at 95° C. for 3 minutes for inactivation. cDNA was sent to an outside lab (CU-Anschutz Metabolic Laboratory) for q-PCR to detect relative or absolute gene expression levels. cDNA was diluted 1:5 and an iTaq Universal Supermix fluorescent probe (BioRad Cat. No. 172-5120) was used to detect the threshold cycle (Ct) during PCR.

[3] = test system: human fibroblast; conditions: read-out: EC50 of human fibroblast migration induced by Substance P (prior study); suspension culture system; Parenti et al. 1996; cited from earlier work
[4] = test system: human NSCs; assay: Cell migration assay, human NSCs; type: cell-based; conditions: read-out: EC50 of VPA for NSC migration in 200 μM lithium, increasing VPA in 200 μM lithium, FIG. 6
Procedure: as §1, §2
In some experiments, curcumin was used at 1 μM to block proliferation. […]
For studies of the effects of CXCR4 and MMP-9 inhibition following 24 hours of cell culture, appropriate wells were dosed with 15 μM GM6001 and 20 μM AMD3100 for 6 hours. […] A TopSeal (PerkinElmer, Cat. No. 6050195) covered the plate for live-cell imaging in a BioTek Cytation3 imaging reader. […]

[5] = test system: MSCs; assay: Presto Blue proliferation assay, MSCs; type: cell-based; conditions: Homo sapiens
Procedure: (§3) Example 5: Effects of lithium and VPA on stem cell proliferation: The effects of lithium and VPA on stem cell proliferation were then investigated using an assay based on Presto Blue, a fluorescent marker of cellular reduction. FIG. 8 is a line graph representation illustrating proliferation of different cell lines induced by increasing concentrations of FGF-b (FGF-2) after a 5 day exposure. Relative fluorescent units were measured using a FITC filter on a Modulus microplate reader and plotted as a function of FGF-2. The data was modeled by sigmoidal curve fitting to calculate EC50 values. […] Proliferation of these mesenchymal cells was stimulated by recombinant human FGF-2 with EC50 values in the range of 3 to 6 ng/ml with maximal proliferative responses at about 10 ng/ml.
The proliferative effects of lithium and VPA were compared, either alone or in combination to MSC proliferation. The results are shown in FIG. 9, which is a line graph representation illustrating proliferation of MSCs induced by lithium, VPA and VPA in 200 μM lithium after a 5 day exposure. Relative fluorescent units were measured using a FITC filter on a Modulus microplate reader and plotted as a function of FGF-2. The data was modeled by sigmoidal curve fitting to calculate EC50 values.

[6] = test system: NSCs; assay: Presto Blue proliferation assay, NSCs; type: cell-based; conditions: Homo sapiens, 120 h, read-out: EC50 of VPA for NSC proliferation in 200 μM lithium, 5 day exposure, FIG. 10
Procedure: as §3
The proliferative responses of MSCs and NSCs were compared to Li-VPA. The results are shown in FIG. 10, which is a line graph representation illustrating proliferation of MSCs and NSCs as a function of increasing VPA in 200 μM lithium after a 5 day exposure. Relative fluorescent units were measured using a FITC filter on a Modulus microplate reader and plotted as a function of FGF-2. The data was modeled by sigmoidal curve fitting to calculate EC50 values. […] This may reflect intrinsic proliferative capacity. […]

[7] = test system: CAFs, primary fibroblasts and MSCs; assay: Presto Blue proliferation assay, CAFs, primary fibroblasts and MSCs (FGF-2 validation); type: cell-based, human; conditions: 5 day exposure
Procedure: as §3

[8] = Example 6, 31.25 μM VPA, 200 μM lithium, FIG. 11

Molecule: c1cc(CN2CCCNCCNCCCNCC2)ccc1CN1CCCNCCNCCCNCC1 [AMD3100]
effect on VPA-induced MSC migration ([1]; 20 μM AMD3100, CXCR4 inhibitor, FIG. 7): blocked | effect on MSC migration induced by curcumin and quercetin ([1]; FIG. 14): blocked MSC migration | effect on MSC migration induced by curcumin and resveratrol ([1]; FIG. 15): blocked MSC migration | effect on MSC migration induced by Li-VPA ([1]; FIG. 7): blocked

Molecule: CNC(=O)[C@H](Cc1c[nH]c2ccccc12)NC(=O)[C@@H](CC(=O)NO)CC(C)C [GM6001]
effect on lithium-induced MSC migration ([1]; 15 μM GM6001, MMP-9 inhibitor, FIG. 7): blocked | effect on MSC migration induced by curcumin and quercetin ([1]; FIG. 14): blocked MSC migration | effect on MSC migration induced by curcumin and resveratrol ([1]; FIG. 15): blocked MSC migration | effect on MSC migration induced by Li-VPA ([1]; FIG. 7): blocked

Molecule: CCCC(=O)[O-].[Na+] [Na butyrate]
expression levels of FGF-21, CXCR4 and Hsp70 ([2]; Example 8): lower levels | expression of Oct 3/4 ([2]; Example 8): less expression activation | expression of SIRT-1 ([2]; Example 8): significantly less effective

Molecule: CSCC[C@H](NC(=O)[C@H](CC(C)C)NC(=O)CNC(=O)[C@H](Cc1ccccc1)NC(=O)[C@H](Cc1ccccc1)NC(=O)[C@H](CCC(N)=O)NC(=O)[C@H](CCC(N)=O)NC(=O)[C@@H]1CCCN1C(=O)[C@H](CCCCN)NC(=O)[C@@H]1CCCN1C(=O)[C@@H](N)CCCNC(=N)N)C(N)=O [Substance P]
EC50 [3]: 0.0022 µM | MSC migration into cell-free center of the well ([1]; 3.7 nM Substance P, 24 hours): induced MSC migration into the cell-free center of the well | MSC migration (percent closure) dose-response ([1]; Substance P from 0 to 18.5 nM, 24-hour live cell analysis): migration increased in a dose-dependent manner

Molecule: CC(/C=C/C(=O)NO)=C\[C@@H](C)C(=O)c1ccc(N(C)C)cc1 [TSA]
expression levels of FGF-21, CXCR4 and Hsp70 ([2]; Example 8): lower levels | expression of Oct 3/4 ([2]; Example 8): less expression activation | expression of SIRT-1 ([2]; Example 8): significantly less effective

EC50 ([1]; read-out: EC50 of MSC migration, agent alone, percent closure, sigmoidal curve fit, FIG. 5): 38.5 µM | EC50 ([1]; read-out: EC50 of VPA for MSC migration in 200 μM lithium, increasing VPA in 200 μM lithium): 33 µM | EC50 [4]: 35.2 µM
Molecule: CCCC(CCC)C(=O)O [VPA, valproic acid]
concentration of maximal migration / maximum closure ([1]; agent alone, FIG. 5): 100 µM | EC50 ([5]; 200 μM lithium, MSCs and NSCs, proliferation and migration, read-out: VPA concentration 50% effective in inducing cell proliferation and migration (mean)): 37 µM | EC50 ([5]; 200 μM lithium, MSCs and NSCs, proliferation and migration, read-out: VPA concentration 50% effective in inducing cell proliferation and migration (range)): 35 to 39 µM | EC50 ([5]; 120 h, 5 day exposure, FIG. 9, read-out: EC50 of MSC proliferation, agent alone): 47.7 µM | EC50 ([5]; 120 h, read-out: EC50 of VPA for MSC proliferation in 200 μM lithium, 5 day exposure, 200 μM lithium): 63.3 µM | EC50 [6]: 36.8 µM | expression of Oct 3/4 compared to untreated human MSCs [2, 8]: about 20 fold | expression of SIRT-1 compared to untreated MSC [2, 8]: ~300 fold | expression of Oct 3/4 ([2]; Example 8): about 20 fold | expression of SIRT-1 ([2]; Example 8): ~300 fold

Molecule: COc1cc(/C=C/C(=O)CC(=O)/C=C/c2ccc(O)c(OC)c2)ccc1O [curcumin]
EC50 ([1]; 36 h, read-out: apparent EC50 of curcumin-induced migration, MSCs, percent closure after 36-hour run): 0.25 µM | concentration at which curcumin induced migration ([1]; human MSCs, 36-hour run): less than 1 μM | estimated LD50 (apparent toxicity, reduced cell number) ([1]; human, 36 h): 3 µM | expression of Oct 3/4, SIRT-1, FGF21, CXCR4 and Hsp70 as compared to VPA ([2]; Example 8, 500 nM curcumin vs 250 μM VPA): equivalent or increased expression | expression of Oct 3/4 ([2]; Example 8): about 20 fold | expression of SIRT-1 ([2]; Example 8): ~300 fold

EC50 ([1]; read-out: EC50 of quercetin for MSC migration in 500 nM curcumin, 500 nM curcumin, FIG. 14): 0.317 µM
Molecule: O=c1c(O)c(-c2ccc(O)c(O)c2)oc2cc(O)cc(O)c12 [quercetin]

EC50 ([1]; read-out: EC50 of resveratrol for MSC migration in 500 nM curcumin, 500 nM curcumin, FIG. 15): 0.253 µM
Molecule: Oc1ccc(C=Cc2cc(O)cc(O)c2)cc1 [resveratrol]

Molecule: CCCCC(=O)O [valeric acid]
expression levels of FGF-21, CXCR4 and Hsp70 ([2]; Example 8): lower levels | expression of Oct 3/4 ([2]; Example 8): less expression activation | expression of SIRT-1 ([2]; Example 8): significantly less effective

Molecule: FGF-2: recombinant human FGF-2, member of the family of fibroblast growth factors
concentration of maximal proliferative responses [7]: about 10 ng/ml
